The test system of the experiment is Solenopsis invicta workers. Put plainly: Injection bioassay of peptides in fire ant workers, adult mortality. It is filed as in vivo. The settings on record: peptide with Cys-Cys S-S bond in insect saline, injected into fire ant workers. How it is done:
Peptides identified herein are injected into the hemocoel of Solenopsis invicta workers using a Nanoliter 2000™ System (World Precision Instruments) with pulled borosilicate needles.
To determine the negative impact these peptides may have against fire ants, synthesis of potential candidates of small peptides with Cysteine-Cysteine S—S bond at the N- and C-terminal ends of SEQ ID NO: 2 and SEQ ID NO: 14. Synthesis of the peptides is described above. These peptides were dissolved in an insect saline (composition in mM: NaCl 126, KCl 5.4, NaH2PO4 0.17 and KH2PO4 0.22, pH 7.4) or the saline only control were injected into fire ant workers and phenotypic effects monitored.
To determine the negative impact these peptides may have against fire ants, synthesis of potential candidates of small peptides with Cysteine-Cysteine S—S bond at the N- and C-terminal ends of SEQ ID NO:2-SEQ ID NO:14. Synthesis of the peptides is described above. These peptides were dissolved in an insect saline (composition in mM: NaCl 126, KCl 5.4, NaH2PO4 0.17 and KH2PO4 0.22, pH 7.4) or the saline only control were injected into fire ant workers and phenotypic effects monitored.
Turning to “CIQQGSHFC (Synthetically generated peptide) [SEQ ID NO: 4, synthetically generated peptide, loop-constrained by flanking cysteines]”, the “adult mortality compared to the saline control” value is listed as “significant increase in adult mortality”.
In the case of “CLKIGSHFC (Synthetically generated peptide) [SEQ ID NO: 3, synthetically generated peptide, loop-constrained by flanking cysteines]”, the “adult mortality compared to the saline control” value is “significant increase in adult mortality”.
On to “CGSHFC (Synthetically generated peptide) [SEQ ID NO: 14, short synthetically generated peptide]”, for which the “adult mortality compared to the saline control” value was “did not affect adult mortality”.
In the case of “CRGATPMSC (Synthetically generated peptide) [SEQ ID NO: 12, synthetically generated peptide, loop-constrained by flanking cysteines]” it was “significant increase in adult mortality”; in that of “CMARYMSAC (Synthetically generated peptide) [SEQ ID NO: 11, synthetically generated peptide, loop-constrained by flanking cysteines]”, “significant increase in adult mortality”; in that of “CQKIGSHFC (Synthetically generated peptide) [SEQ ID NO: 2, synthetically generated peptide, loop-constrained by flanking cysteines]”, “increase in adult mortality”.

Source of the values: patent publication US10017538B2, “Bioactive peptides having insecticide activity” (The United States of America, as represented by the …, priority 2016, dated 2018).
